Data published in ChEMBL document CHEMBL4665643 (Bioorg Med Chem Lett, 2019).

Legend:
[1] = molecular target: Tyrosine-protein kinase ABL1 (Homo sapiens) (UniProt P00519); assay: Inhibition of recombinant human His-tagged full length Abl expressed in baculovirus expression system using Tyr 02 as substrate at 0.1 uM incubated for 60 mins by Z'-Lyte assay relative to control
[2] = molecular target: Serine/threonine-protein kinase pim-2 (Homo sapiens) (UniProt Q9P1W9); assay: Inhibition of recombinant human GST-tagged full length PIM2 expressed in baculovirus expression system using Ser/Thr 07 as substrate at 0.1 uM incubated for 60 mins by Z'-lyte assay relative to control
Serine/threonine-protein kinase pim-2 (Homo sapiens), sequence (Q9P1W9 whole entry, looked up, the tested form may be a part): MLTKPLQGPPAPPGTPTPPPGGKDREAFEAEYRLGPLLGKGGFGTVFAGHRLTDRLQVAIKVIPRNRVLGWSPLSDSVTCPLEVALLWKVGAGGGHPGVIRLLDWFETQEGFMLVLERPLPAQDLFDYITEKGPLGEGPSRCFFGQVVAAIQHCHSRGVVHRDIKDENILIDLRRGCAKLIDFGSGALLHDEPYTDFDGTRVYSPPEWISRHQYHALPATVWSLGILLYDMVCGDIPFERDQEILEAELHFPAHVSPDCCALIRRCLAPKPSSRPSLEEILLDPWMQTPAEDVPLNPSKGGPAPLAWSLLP

[3] = molecular target: T1, Ephrin type-B receptor 2 (Homo sapiens) (UniProt P29323); assay: Inhibition of recombinant human GST-tagged EPHB2 (616 to 884 residues) expressed in baculovirus expression system using Tyr 02 as substrate at 0.1 uM incubated for 60 mins by Z'-Lyte assay relative to control
T1 sequence (whole entry): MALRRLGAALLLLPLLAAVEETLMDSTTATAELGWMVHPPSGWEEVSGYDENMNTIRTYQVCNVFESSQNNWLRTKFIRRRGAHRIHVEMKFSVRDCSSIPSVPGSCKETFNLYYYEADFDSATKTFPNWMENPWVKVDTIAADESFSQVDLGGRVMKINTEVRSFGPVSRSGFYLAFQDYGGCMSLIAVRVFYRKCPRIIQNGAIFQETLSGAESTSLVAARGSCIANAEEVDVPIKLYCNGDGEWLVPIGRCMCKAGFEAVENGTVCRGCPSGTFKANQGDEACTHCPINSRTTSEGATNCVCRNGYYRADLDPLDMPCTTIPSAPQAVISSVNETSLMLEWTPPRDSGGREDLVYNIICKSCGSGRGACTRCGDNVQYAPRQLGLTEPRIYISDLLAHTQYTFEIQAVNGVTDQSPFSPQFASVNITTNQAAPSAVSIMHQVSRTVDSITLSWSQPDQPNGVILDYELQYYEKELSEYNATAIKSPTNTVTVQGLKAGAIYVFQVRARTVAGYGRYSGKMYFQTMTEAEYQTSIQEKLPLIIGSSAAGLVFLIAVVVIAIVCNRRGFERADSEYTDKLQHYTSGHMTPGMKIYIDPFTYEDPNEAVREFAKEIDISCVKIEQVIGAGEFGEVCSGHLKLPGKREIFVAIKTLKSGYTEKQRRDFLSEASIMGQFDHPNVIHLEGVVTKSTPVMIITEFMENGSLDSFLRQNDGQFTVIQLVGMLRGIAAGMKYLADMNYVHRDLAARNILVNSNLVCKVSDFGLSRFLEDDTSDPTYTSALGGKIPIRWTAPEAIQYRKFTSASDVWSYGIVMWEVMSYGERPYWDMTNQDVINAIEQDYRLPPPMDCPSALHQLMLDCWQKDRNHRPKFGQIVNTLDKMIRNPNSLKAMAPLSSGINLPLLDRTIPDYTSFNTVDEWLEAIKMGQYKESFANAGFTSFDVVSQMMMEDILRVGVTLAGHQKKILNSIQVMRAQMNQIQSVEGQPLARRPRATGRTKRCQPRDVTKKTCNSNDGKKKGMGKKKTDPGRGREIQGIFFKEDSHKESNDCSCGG

[4] = molecular target: T2, Inhibitor of nuclear factor kappa-B kinase subunit beta (Homo sapiens) (UniProt O14920); assay: Inhibition of recombinant human GST-tagged full length IKKbeta expressed in baculovirus expression system using Ser/Thr 05 as substrate at 0.1 uM incubated for 60 mins by Z'-Lyte assay relative to control
T2 sequence (whole entry): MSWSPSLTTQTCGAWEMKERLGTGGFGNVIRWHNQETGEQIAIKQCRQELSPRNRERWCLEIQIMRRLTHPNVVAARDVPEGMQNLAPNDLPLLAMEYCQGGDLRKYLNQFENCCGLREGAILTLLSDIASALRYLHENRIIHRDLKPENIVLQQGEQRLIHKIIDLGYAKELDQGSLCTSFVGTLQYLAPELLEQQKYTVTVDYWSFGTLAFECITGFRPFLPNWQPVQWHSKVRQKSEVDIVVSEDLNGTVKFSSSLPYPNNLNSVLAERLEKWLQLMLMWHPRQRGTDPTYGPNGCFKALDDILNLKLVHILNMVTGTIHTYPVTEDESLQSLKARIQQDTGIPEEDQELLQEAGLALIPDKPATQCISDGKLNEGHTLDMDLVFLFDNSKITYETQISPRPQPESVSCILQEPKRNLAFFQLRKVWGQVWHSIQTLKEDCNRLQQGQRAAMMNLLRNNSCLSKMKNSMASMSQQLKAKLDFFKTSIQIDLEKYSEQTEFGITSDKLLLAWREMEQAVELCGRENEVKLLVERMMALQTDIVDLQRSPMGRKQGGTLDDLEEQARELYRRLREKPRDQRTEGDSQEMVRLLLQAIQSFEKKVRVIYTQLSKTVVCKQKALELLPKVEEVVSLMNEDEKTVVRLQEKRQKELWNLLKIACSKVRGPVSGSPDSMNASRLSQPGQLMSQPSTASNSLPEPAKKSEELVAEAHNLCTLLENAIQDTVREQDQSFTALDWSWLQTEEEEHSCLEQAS

[5] = molecular target: Mitogen-activated protein kinase 14 (Homo sapiens) (UniProt Q16539); assay: Inhibition of recombinant human GST-tagged full length p38 alpha expressed in Escherichia coli expression system using Ser/Thr 15 as substrate at 0.1 uM incubated for 60 mins by Z'-Lyte assay relative to control
Mitogen-activated protein kinase 14 (Homo sapiens), sequence (Q16539 whole entry): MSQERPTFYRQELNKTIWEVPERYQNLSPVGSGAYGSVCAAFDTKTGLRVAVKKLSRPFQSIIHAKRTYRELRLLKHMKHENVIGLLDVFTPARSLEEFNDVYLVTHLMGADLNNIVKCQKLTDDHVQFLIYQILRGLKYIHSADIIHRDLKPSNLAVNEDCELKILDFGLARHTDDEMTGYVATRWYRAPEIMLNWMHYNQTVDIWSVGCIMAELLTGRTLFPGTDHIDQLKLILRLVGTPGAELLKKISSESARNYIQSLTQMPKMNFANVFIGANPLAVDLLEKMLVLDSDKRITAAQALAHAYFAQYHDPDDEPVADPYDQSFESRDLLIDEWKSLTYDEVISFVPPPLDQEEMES

Tyrosine-protein kinase ABL1 (Homo sapiens), sequence (P00519 whole entry): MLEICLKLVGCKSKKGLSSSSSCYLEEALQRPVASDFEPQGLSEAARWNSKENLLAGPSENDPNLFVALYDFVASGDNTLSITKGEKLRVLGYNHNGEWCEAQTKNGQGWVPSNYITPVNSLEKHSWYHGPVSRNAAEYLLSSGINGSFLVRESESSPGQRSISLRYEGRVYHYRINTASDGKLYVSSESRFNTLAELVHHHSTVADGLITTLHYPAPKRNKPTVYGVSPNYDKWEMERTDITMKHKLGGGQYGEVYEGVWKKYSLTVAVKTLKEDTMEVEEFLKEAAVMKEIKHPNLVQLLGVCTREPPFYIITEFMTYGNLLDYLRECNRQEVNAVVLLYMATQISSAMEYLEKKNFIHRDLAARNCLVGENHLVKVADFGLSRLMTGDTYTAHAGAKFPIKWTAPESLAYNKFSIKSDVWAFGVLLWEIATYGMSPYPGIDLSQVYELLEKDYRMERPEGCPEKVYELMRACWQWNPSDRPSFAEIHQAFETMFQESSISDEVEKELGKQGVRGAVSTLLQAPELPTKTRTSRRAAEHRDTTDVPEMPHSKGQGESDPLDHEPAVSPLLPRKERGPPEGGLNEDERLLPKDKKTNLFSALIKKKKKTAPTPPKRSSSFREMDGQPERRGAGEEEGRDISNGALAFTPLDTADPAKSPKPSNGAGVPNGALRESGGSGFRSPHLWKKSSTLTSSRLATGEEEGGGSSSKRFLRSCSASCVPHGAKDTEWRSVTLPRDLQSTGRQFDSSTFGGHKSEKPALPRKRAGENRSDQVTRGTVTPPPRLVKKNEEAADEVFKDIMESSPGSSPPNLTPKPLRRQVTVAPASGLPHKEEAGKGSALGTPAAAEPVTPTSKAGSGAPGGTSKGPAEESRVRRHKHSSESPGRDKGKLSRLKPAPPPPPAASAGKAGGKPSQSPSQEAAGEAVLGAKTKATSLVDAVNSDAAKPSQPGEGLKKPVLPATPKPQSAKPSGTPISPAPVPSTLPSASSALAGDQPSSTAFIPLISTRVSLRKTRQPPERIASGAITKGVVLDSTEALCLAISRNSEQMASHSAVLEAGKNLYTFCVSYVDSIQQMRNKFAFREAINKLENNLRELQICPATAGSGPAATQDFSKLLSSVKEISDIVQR

SMILES	inhibition [1] [%]	inhibition [2] [%]	inhibition [3] [%]	inhibition [4] [%]	inhibition [5] [%]
O=C(Nc1c[nH]nc1-c1cc2ccccc2cc1OC(F)F)c1cnn2cccnc12	11	-1	-3	-3	2
O=C(Nc1c[nH]nc1-c1cc(Cl)ccc1OC(F)F)c1cnn2cccnc12	32	18	10	2	-4
Cn1cc(NC(=O)c2cnn3cccnc23)c(-c2cc(Cl)ccc2OC(F)F)n1	10	2	1	5	7
